Measurements reported in PMC11116414, “Impact of secretin receptor homo-dimerization on natural ligand binding” (Nature Communications, 2024).
No end group written: not given here.

Test system: cysteine-containing SecR(G264A,I268A) constructs
Assay: Cysteine trapping with SecR(G264A,I268A) cysteine constructs, intact COS-1 cells
Assay type: binding, human
Details: for Intraloop labeling / Overall labeling: mean ± S.E.M.; for cysteine trapping in ECL3, in words: WT (earlier work) and non-dimerizing SecR
Procedure: In short, 15 µg of each peptide were incubated with 1 mCi of Na^125I for 15 s in borate buffer (pH 9.0) using solid-state N-chlorobenzene sulfonamide (iodination beads), and radioactive peptide products were separated and purified using reversed-phase HPLC, to yield a mono-iodinated peak with a specific radioactivity of 2000 Ci/mmol.
Modified secretin receptor constructs were prepared by mutagenesis of human SecR(G264A,I268A) by introducing cysteine residues to replace each natural residue in the N-terminal stalk region, (extracellular loop 1) ECL1, ECL2, and ECL3 regions of the receptor[21]. Mutagenesis was performed using the QuikChange site-directed mutagenesis kit from Stratagene (La Jolla, CA), with the products verified by direct DNA sequencing.
Cysteine trapping is a technique in which cysteine residues incorporated into distinct positions within a peptide ligand and within its receptor are allowed to form disulfide bonds when two free cysteines are in proximity to each other with necessary distance and geometry. As noted above, this was performed with secretin peptides incorporating cysteines in positions 2, 5, 6 and 7[20],[21], and with a series of SecR mutants incorporating cysteines in all extracellular domains (75 distinct constructs in a TM4 mutant non-dimerizing SecR background). COS-1 cells were grown to approximate 85% confluence in 24-well tissue culture plates, and transfected with cysteine mutant receptor constructs using the PEI method. Assays were started by washing the cells with DMEM containing 5% Fetal Clone II before being incubated with 200 μl radiolabeled cysteine-containing probes (approximately 100,000 cpm per well) for 1.5 h at room temperature. The assays were terminated by washing the cells with ice-cold PBS, pH 7.4, and mixing with 60 µl SDS Laemmli sample buffer not containing dithiothreitol (DTT). Lysates were run on 10% SDS-polyacrylamide gels. Gels were then dried, and bands of interest were visualized by autoradiography, and specific bands were identified, and intensities quantified using ImageJ. Sites having labeling above background were determined using one-way ANOVA with Dunnett’s post-test, with P < 0.001 considered to be significant. The apparent molecular weights of the receptor bands were determined by interpolation with the mobility of the appropriate ProSieve protein markers.

[1] = A292C, ECL2, n = 3-5, Cys5 significant (P < 0.0001)
[2] = F279C, ECL2, % of highest-labeled residue across all constructs, n = 4 (Cys2), 5 (Cys5, Cys6), 3 (Cys7)
[3] = L374C, ECL3, n = 3-5, Cys5, Cys6, Cys7 significant (P < 0.001)
[4] = M366C, ECL3, n = 3-5, Cys5 significant (P < 0.0001)
[5] = W296C, ECL2, n = 3-5, Cys6 significant (P = 0.0003)

Work on “Cys^6-[Tyr^10]secretin(1-27) (HSDGTCTSEYSRLREGARLQRLLQGLV; not fully specified; ends and bridges not checked; also: radioiodinated; UniProt P09683 28-54, looked up, variant F6C L10Y) [Cys^6-Sec, cysteine-containing secretin agonist probe, radioiodinated for cysteine trapping]” yielded an Intraloop labeling (A292C, ECL2, n = 3-5) of 29.1 ±17.0 percentage, an Overall labeling [1] of 24.9±17.2 percentage and an Intraloop labeling (D282C, ECL2, n = 3-5) of less than 1 percentage. It also gave an Overall labeling (D282C, ECL2, n = 3-5) of less than 1 percentage, an Intraloop labeling (D364C, ECL3, n = 3-5) of 17.1±8.2 percentage and an Overall labeling (D364C, ECL3, n = 3-5, Cys5 significant (P < 0.0001)) of 16.2±8.4 percentage. The Intraloop labeling (E367C, ECL3, n = 3-5) was 40.8±17.2 percentage, the Overall labeling (E367C, ECL3, n = 3-5) was 35.5±14.9 percentage and the Intraloop labeling (E373C, ECL3, n = 3-5) was 19.9±17.3 percentage. The Overall labeling (E373C, ECL3, n = 3-5) was 13.9±11.4 percentage, the Overall labeling [2] was less than 1 percentage and the Intraloop labeling (F358C, ECL3, n = 3-5) was 16.4±12.8 percentage. It also gave an Overall labeling (F358C, ECL3, n = 3-5) of 10.2±6.9 percentage, an Intraloop labeling (F371C, ECL3, n = 3-5) of 11.4±11.0 percentage and an Intraloop labeling (F372C, ECL3, n = 3-5) of 19.0±15.7 percentage. It also gave an Overall labeling (F372C, ECL3, n = 3-5) of 13.6±10.3 percentage, an Overall labeling (G284C, ECL2, n = 3-5) of less than 1 percentage and an Intraloop labeling (I294C, ECL2, n = 3-5) of 10.5±9.5 percentage. The Overall labeling (I294C, ECL2, n = 3-5) was 10.3±9.5 percentage, the Intraloop labeling (I297C, ECL2, n = 3-5) was 30.1±18.4 percentage and the Intraloop labeling (L374C, ECL3, n = 3-5) was 94.8±5.2 percentage. It also gave an Overall labeling [3] of 78.8±9.2 percentage, an Intraloop labeling (M366C, ECL3, n = 3-5) of 56.2±16.4 percentage and an Overall labeling [4] of 48.0±17.7 percentage. For the same substance, the Intraloop labeling (N289C, ECL2, n = 3-5) was 15.8±14.5 percentage, the Overall labeling (N289C, ECL2, n = 3-5) was 15.7±14.5 percentage and the Intraloop labeling (N291C, ECL2, n = 3-5) was less than 1 percentage. It also gave an Overall labeling (N291C, ECL2, n = 3-5) of less than 1 percentage, an Intraloop labeling (Q369C, ECL3, n = 3-5) of 13.0±12.7 percentage and an Intraloop labeling (V283C, ECL2, n = 3-5) of 15.8±13.9 percentage. It also gave an Overall labeling (V283C, ECL2, n = 3-5) of 15.5±13.9 percentage, an Intraloop labeling (W286C, ECL2, n = 3-5) of 24.4±19.3 percentage and an Overall labeling (W286C, ECL2, n = 3-5) of 13.4±8.9 percentage. For the same substance, the Intraloop labeling (W295C, ECL2, n = 3-5) was 34.2±0.1 percentage, the Overall labeling (W295C, ECL2, n = 3-5, Cys2, Cys5, Cys7 significant (P < 0.0001)) was 34.1±17.2 percentage and the Intraloop labeling (W296C, ECL2, n = 3-5) was 80.2±19.8 percentage. The Overall labeling [5] was 68.0±20.5 percentage and the “cysteine trapping in ECL3, in words” value was “labeled ECL3 residues”.

In the case of “Cys^7-[Tyr^10]secretin(1-27) (HSDGTFCSEYSRLREGARLQRLLQGLV; not fully specified; ends and bridges not checked; also: radioiodinated; UniProt P09683 28-54, looked up, variant T7C L10Y) [Cys^7-Sec, cysteine-containing secretin agonist probe, radioiodinated for cysteine trapping]”, the Intraloop labeling (A290C, ECL2, n = 3-5) is reported as less than 1 percentage, the Overall labeling (A290C, ECL2, n = 3-5) is reported as less than 1 percentage and the Intraloop labeling (A292C, ECL2, n = 3-5) is reported as less than 1 percentage. It also gave an Overall labeling [1] of less than 1 percentage, an Intraloop labeling (A359C, ECL3, n = 3-5) of 85.3±8.6 percentage and an Overall labeling (A359C, ECL3, n = 3-5, Cys7 significant (P = 0.0004)) of 85.3±8.6 percentage. It also gave an Intraloop labeling (A365C, ECL3, n = 3-5) of 66.4±17.1 percentage, an Overall labeling (A365C, ECL3, n = 3-5, Cys5 significant (P < 0.0001)) of 66.4±17.1 percentage and an Intraloop labeling (D282C, ECL2, n = 3-5) of less than 1 percentage. It also gave an Overall labeling (D282C, ECL2, n = 3-5) of less than 1 percentage, an Intraloop labeling (D287C, ECL2, n = 3-5) of 15.7±15.6 percentage and an Intraloop labeling (E363C, ECL3, n = 3-5) of less than 1 percentage. It also gave an Overall labeling (E363C, ECL3, n = 3-5) of less than 1 percentage, an Intraloop labeling (E367C, ECL3, n = 3-5) of less than 1 percentage and an Overall labeling (E367C, ECL3, n = 3-5) of less than 1 percentage. The Intraloop labeling (E373C, ECL3, n = 3-5) was less than 1 percentage, the Overall labeling (E373C, ECL3, n = 3-5) was less than 1 percentage and the Intraloop labeling (F279C, ECL2, % of highest labeling within loop, n = 4 (Cys2), 5 (Cys5, Cys6), 3 (Cys7)) was less than 1 percentage. The Overall labeling [2] was less than 1 percentage, the Intraloop labeling (F358C, ECL3, n = 3-5) was 21.6±20.7 percentage and the Overall labeling (F358C, ECL3, n = 3-5) was 21.6±20.7 percentage. For the same substance, the Intraloop labeling (F360C, ECL3, n = 3-5) was 23.9±23.4 percentage, the Overall labeling (F360C, ECL3, n = 3-5) was 23.9±23.4 percentage and the Intraloop labeling (F372C, ECL3, n = 3-5) was 24.8±24.7 percentage. The Overall labeling (F372C, ECL3, n = 3-5) was 24.8±24.7 percentage, the Intraloop labeling (G284C, ECL2, n = 3-5) was less than 1 percentage and the Overall labeling (G284C, ECL2, n = 3-5) was less than 1 percentage. The Intraloop labeling (I288C, ECL2, n = 3-5) was 82.9±8.6 percentage, the Overall labeling (I288C, ECL2, n = 3-5, Cys5 and Cys7 significant (P < 0.0001)) was 71.4±10.6 percentage and the Intraloop labeling (I294C, ECL2, n = 3-5) was less than 1 percentage. For the same substance, the Overall labeling (I294C, ECL2, n = 3-5) was less than 1 percentage, the Intraloop labeling (I297C, ECL2, n = 3-5) was less than 1 percentage and the Overall labeling (I297C, ECL2, n = 3-5) was less than 1 percentage. It also gave an Intraloop labeling (I368C, ECL3, n = 3-5) of less than 1 percentage, an Overall labeling (I368C, ECL3, n = 3-5) of less than 1 percentage and an Intraloop labeling (L280C, ECL2, n = 3-5) of less than 1 percentage. It also gave an Overall labeling (L280C, ECL2, n = 3-5) of less than 1 percentage, an Intraloop labeling (L374C, ECL3, n = 3-5) of 88.6±11.4 percentage and an Overall labeling [3] of 88.6±11.4 percentage. The Intraloop labeling (M366C, ECL3, n = 3-5) was 55.6±22.3 percentage, the Overall labeling [4] was 55.6±22.3 percentage and the Intraloop labeling (N291C, ECL2, n = 3-5) was less than 1 percentage. It also gave an Overall labeling (N291C, ECL2, n = 3-5) of less than 1 percentage, an Intraloop labeling (P362C, ECL3, n = 3-5) of less than 1 percentage and an Overall labeling (P362C, ECL3, n = 3-5) of less than 1 percentage. It also gave an Intraloop labeling (Q369C, ECL3, n = 3-5) of less than 1 percentage, an Overall labeling (Q369C, ECL3, n = 3-5) of less than 1 percentage and an Intraloop labeling (S293C, ECL2, n = 3-5) of less than 1 percentage. It also gave an Overall labeling (S293C, ECL2, n = 3-5) of less than 1 percentage, an Intraloop labeling (S361C, ECL3, n = 3-5) of less than 1 percentage and an Overall labeling (S361C, ECL3, n = 3-5) of less than 1 percentage. The Intraloop labeling (V283C, ECL2, n = 3-5) was less than 1 percentage, the Overall labeling (V283C, ECL2, n = 3-5) was less than 1 percentage and the Overall labeling (W286C, ECL2, n = 3-5) was less than 1 percentage. It also gave an Intraloop labeling (W295C, ECL2, n = 3-5) of 92.5±7.5 percentage, an Intraloop labeling (W296C, ECL2, n = 3-5) of less than 1 percentage and an Overall labeling [5] of less than 1 percentage. The “cysteine trapping in ECL3, in words” value was “labeled ECL3 residues”.
